Test results from ChEMBL document CHEMBL1201862, “PubChem BioAssay data set” (2004).
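How tested: cells in 96-well plates exposed to compound for 48 hours at five concentrations. GI50: concentration for 50% inhibition of growth.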 Active and inactive are the calls of the source. Cut-off read from the data, not from the text of the source: active = GI50 up to about 1.1 µM and inactive = higher.

Experiments:
Assay in all cases: NCI anticancer screen, dose series, 48 h
[1] = test system: SF-539
[2] = test system: 786-0
[3] = test system: IGROV-1
[4] = test system: Malme-3M
[5] = test system: K562
[6] = test system: SF-295
[7] = test system: NCI-H522
[8] = test system: UACC-257
[9] = test system: SN12C
[10] = test system: COLO 205
[11] = test system: U-251
[12] = test system: HOP-92
[13] = test system: CAKI-1
[14] = test system: NCI-H226
[15] = test system: ACHN
[16] = test system: MDA-MB-231
[17] = test system: MDA-MB-435
[18] = test system: PC-3
[19] = test system: Hs-578T

Measured: GI50

COC(=O)CCC(=O)C(CC(=O)OC)C(=O)CCC(=O)NCCc1ccccc1 (stereo not given)
inactive: [1] > 100 µM | [2] > 100 µM | [3] > 100 µM | [4] > 100 µM | [5] > 100 µM | [6] > 100 µM | [7] > 100 µM | [8] > 100 µM | [9] > 100 µM | [10] > 100 µM | [11] > 100 µM | [12] > 100 µM | [13] > 100 µM | [14] > 100 µM | [15] > 100 µM

CSC(C1c2ccccc2N(C)C2=NC(=O)N(C)C(=O)C21Cl)S(=O)(=O)c1ccc(C)cc1 (stereo not given)
inactive: [1] 42 µM | [2] 18.8 µM | [3] > 100 µM | [4] 40.3 µM | [5] 16.7 µM | [6] 33.6 µM | [7] 15.7 µM | [8] 79.1 µM | [9] 50.4 µM | [10] 40.2 µM | [11] > 100 µM | [12] 24.9 µM | [13] 24.9 µM | [14] > 100 µM | [15] 50.6 µM

COc1ccccc1C(=O)c1ccc2ccccc2c1
inactive: [1] 5.74 µM | [16] 35.8 µM | [2] 30.1 µM | [17] 3.47 µM | [3] 11.3 µM | [4] 10.8 µM | [5] 4 µM | [6] 22 µM | [7] 5.85 µM | [8] 30.6 µM | [9] 28.1 µM | [10] 20.4 µM | [11] 13.3 µM | [12] 18.7 µM | [13] 13.8 µM | [14] 31.5 µM | [18] 23.8 µM | [19] 12.3 µM | [15] 41.2 µM

COc1cc2nc(-c3cccs3)nc(N3CCN(c4ccccc4C(F)(F)F)CC3)c2cc1OC
inactive: [1] 55.6 µM | [16] > 100 µM | [2] > 100 µM | [17] 52.8 µM | [3] 25.9 µM | [4] > 100 µM | [5] 83.6 µM | [6] 51.2 µM | [7] 90.4 µM | [8] > 100 µM | [9] > 100 µM | [10] > 100 µM | [11] > 100 µM | [12] 21.4 µM | [13] 25.2 µM | [14] > 100 µM | [18] 79.3 µM | [19] 89.9 µM | [15] > 100 µM

CC(=O)N(C)c1cc(NCc2ccccc2)ccc1OCc1ccccc1
inactive: [1] 17.3 µM | [16] 15.8 µM | [2] 27.9 µM | [17] 16.6 µM | [3] 16.4 µM | [4] 16.1 µM | [5] 22.1 µM | [6] 15.4 µM | [7] 17.9 µM | [8] 17.3 µM | [9] 17.5 µM | [10] 22.3 µM | [11] 17.4 µM | [12] 12.7 µM | [13] 17.7 µM | [14] 18.4 µM | [19] 31.4 µM | [15] 17.3 µM

CCn1c(=O)nc2n(-c3ccc(SC)cc3)c3ccccc3nc-2c1=O
inactive: [1] 54 µM | [2] > 100 µM | [3] > 100 µM | [4] > 100 µM | [5] > 100 µM | [6] > 100 µM | [7] > 100 µM | [8] > 100 µM | [9] > 100 µM | [10] 8.15 µM | [11] > 100 µM | [12] > 100 µM | [13] 32.9 µM | [14] > 100 µM | [15] 1.87 µM

O=C(/C(=C\I)c1ccccc1)c1ccccc1
inactive: [1] 15.2 µM | [16] 3.94 µM | [2] 3.52 µM | [17] 12.6 µM | [3] 10.8 µM | [4] 7.31 µM | [5] 3.31 µM | [6] 16.9 µM | [7] 4.86 µM | [8] 4.55 µM | [9] 18 µM | [10] 3.63 µM | [11] 2.75 µM | [12] 13.7 µM | [13] 1.51 µM | [14] 24.6 µM | [18] 2.71 µM | [19] 3.75 µM | [15] 13 µM

COc1cc2ccnc(-c3c4ccccc4c(N)c4c(OC)c(OC)ccc34)c2cc1OC
inactive: [1] 2.09 µM | [2] 2.65 µM | [3] 3.24 µM | [4] 3.32 µM | [5] 1.55 µM | [6] 3.18 µM | [7] 3.16 µM | [8] 2.32 µM | [9] 3.47 µM | [10] 1.58 µM | [11] 3.37 µM | [12] 1.79 µM | [13] 2.65 µM | [14] 2.07 µM | [15] 3.54 µM
